Measurements taken from patent US20070275935A1, “Estratriene Derivatives” (priority 2003, published 2007).

Key:
[1] = system: Pulmonary fibroblasts; assay: bFGF-induced proliferation of human pulmonary fibroblasts; assay type: cell-based; details: inhibition of bFGF (300 pM)-induced proliferation, mean and SEM, minimum 3 experiments; 1 μM; * not defined
Method: Samples of parenchyma from human lung transplant recipients were dissected away from the pleura, chopped into fragments of less than 1 mm^2 and allowed to adhere to plastic culture dishes in a minimal volume of DMEM containing serum (10%) and antibiotics (as used for HASM culture). After the tissue fragments had adhered to the base of the dish additional medium was added. Medium was changed twice weekly until an explant culture formed, at which time the tissue fragments were removed and the cells were passaged in a 1:3 split ratio by exposure to trypsin weekly to produce pulmonary fibroblast cultures.
Pulmonary fibroblasts were cultured in DMEM, serum-deprived for 24 h, in the presence or absence of the test compounds, and then stimulated with 300 pM bFGF for 48 h before harvest and counting of viable cells. An increase pulmonary fibroblast cell number was prevented by 4NOM over the concentration range of 1 to 1000 nM.
A range of the disclosed compounds was subsequently examined using the above assay system, and the results are summarized in Column E of Table 4. […] The proliferation of parenchymal fibroblasts is important in the development of pulmonary fibrosis.

[2] = system: Human airway smooth muscle (HASM) cells; assay: Thrombin-induced proliferation of human airway smooth muscle (HASM) cells, cell number after 48 h; assay type: cell-based; details: for HASM- Thr pIC25 / HASM- Thr pIC75: two site model, thrombin-induced proliferation; for HASM- Thr pIC25: first phase (inhibition up to 50%); for HASM- Thr pIC75: second phase (inhibition up to 100%); for IC50: Homo sapiens, negative log of the concentration that reduces the thrombin-induced proliferative response by 50%, pIC50 of 4.00 = inactive, read-out: HASM-Thr pIC50 (converted)
Method: Human airway smooth muscle (HASM) cells were cultured from macroscopically normal bronchi (0.5-2 cm diameter) obtained from lung resection or heart-lung transplant specimens provided by the Alfred Hospital (Melbourne) according to methods published in detail previously (Fernandes et al., 1999).
Approximately 0.1 g of smooth muscle was stripped from the wall of the bronchus for each cell culture. Dissected tissue was immersed in Dulbecco's modified Eagle's medium (DMEM) (Flow Laboratories, Scotland), supplemented with 100 U/mL penicillin G (CSL, Australia) and 100 ug/mL streptomycin (CSL, Australia). The tissue was rinsed in phosphate buffered saline (PBS; Oxoid, England) and the airway smooth muscle was chopped into 2 mm^3 pieces and digested for 2 hours in DMEM containing elastase (0.5 mg/mL: Worthington Biochemical, USA) followed by a 12 hour incubation in DMEM containing collagenase (1 mg/mL) (Worthington Biochemical, USA), at 37° C. with agitation.
The resulting cell suspension was centrifuged and washed three times in phosphate buffered saline (PBS). Following the last centrifugation step, the cells were resuspended in 25 mL of DMEM supplemented with L-glutamine (2 mM: Sigma, USA), penicillin G (100 U/mL), streptomycin (100 μg/mL), amphotericin B (2 μg/mL: Wellcome, UK) and heat-inactivated FCS (10% v/v: CSL, Australia) and seeded into 25 cm^2 culture flasks. The primary isolates were incubated for 7 to 14 days to reach confluence.
Cells were harvested weekly by 10 min exposure to trypsin (0.5%: CSL, Australia) and EDTA (1 mM in PBS: BDH, Australia) and passaged at a 1:3 ratio into 75 cm^2 flasks.
The activity of the compounds has been established in cell culture by exploring their effects on mitogen-induced increases in cell number. We investigated the effects of 2MEO and its analogues, 4NO and 4NOM, on the proliferation of HASM cells in response to the proliferative stimulus of either thrombin of basic fibroblast growth factor (bFGF). Cells were seeded onto 6-well plates at a density of 1.5×10^4 cells cm^2, made quiescent by removal of serum-containing media for 24 hours and then stimulated for 48 h with either thrombin (0.3 U/ml) or bFGF (300 pM). The test compounds were pre-incubated with HASM cells for 30 minutes before the addition of thrombin. At the end of the 48 hour incubation period, cells were detached from the culture plate by trypsin (0.5% w/v in PBS containing 1 mM EDTA), incubated for 5 minutes at ambient temperature in PBS containing 0.5% (w/v) trypan blue, washed twice (2% FCS in PBS), isolated by centrifugation (12,000×g, 5 min) and resuspended in 200 μl 2% FCS in PBS for counting in a haemocytometer chamber.
Data are expressed as a percentage of the cell number in vehicle treated wells and are presented as the mean and standard error of the mean.
The potency of the compounds in regulating thrombin-induced proliferation of human airway smooth muscle (HASM) was assessed in cells maintained in culture as described above. The potencies are presented as pIC50 values (Column A of Table 4) denoting the negative log of the concentration that reduces the proliferative response by 50%. […] When the single phase model was determined to be more appropriate, the values of pIC25 and pIC75 were not calculated or shown in the table.

[3] = system: GM-CSF production by Human Airway Smooth Muscle Cells; assay: Interleukin-1α-mediated GM-CSF production by HASM cells (ELISA); assay type: cell-based; details: inhibition of interleukin-1α (1 ng/ml)-mediated GM-CSF production; concentration not given; * not defined
[4] = system: type II airway epithelial cell line, A549; assay: Proliferation of A549 cells in response to 5% FCS; assay type: cell-based, human; details: Homo sapiens, A549; proliferation in response to 5% FCS; pIC50 of 4.00 = inactive; read-out: A549 PIC50 (converted)
Method: The effects of 4NO were evaluated in a number of non-smooth muscle cell types including the type II airway epithelial cell line, A549 (ATCC accession number ATCC CCL-185 Lung carcinoma human) (FIG. 2); the human breast tumour cell line, MCF7, (ATTC accession number ATCC HTB-22 breast adenocarcinoma, human) which expresses the estrogen receptor (FIG. 3); and in bovine aortic endothelial cells (BAEC) (FIG. 4).
The effects of test compounds were examined on proliferation of A549 cells in response to 5% fetal calf serum (FCS). Analogues were pre-incubated with A549 cells for 30 min before the addition of FCS. The incubation continued for 48 h before cell enumeration. Data are expressed as a percentage of the cell number in vehicle treated wells and are presented as the mean and standard error of the mean. Similarly the effects of 2MEO and 4NO on proliferation of MCF7 in response to 5% FCS or epidermal growth factor (EGF, 300 pM) were examined, as were the effects of 2MEO and 4NO on proliferation of BAEC in response to 5% FCS. The incubation parameters were the same as described above and results are presented as the mean and standard error of the mean.
This assay was also used to evaluate the ability of other compounds to inhibit the proliferation of non-smooth muscle cells MCF7 and A549 (described above) in response to 5% FCS. The results of this assay are presented in Table 4 (columns G and H respectively). The potency of the compounds was considerably less in inhibiting proliferation of these cell lines than it was for HASM. These observations support the contention that there are cell type-specific targets for the actions of these compounds. Such assays may also be adopted to examine the effect of other disclosed compounds on these cells or on other non-smooth muscle cells of interest.

[5] = molecular target: T1, Estrogen Receptor (ER) (Rattus norvegicus, UniProt P06211); assay: Estrogen receptor binding assay, 3H-estradiol displacement from rat uterine cytosol; details: 3H-estradiol displacement, cytosolic preparations of rat uterus; pIC50 of 4.00 = inactive; read-out: ER-RLB pIC50 (converted)
T1 construct: using rat uterine cytosol as a source of ER; from tissue; host or cells: rat uterus, cytosol fraction (30000 x g supernatant)
T1 sequence (P06211 1-600): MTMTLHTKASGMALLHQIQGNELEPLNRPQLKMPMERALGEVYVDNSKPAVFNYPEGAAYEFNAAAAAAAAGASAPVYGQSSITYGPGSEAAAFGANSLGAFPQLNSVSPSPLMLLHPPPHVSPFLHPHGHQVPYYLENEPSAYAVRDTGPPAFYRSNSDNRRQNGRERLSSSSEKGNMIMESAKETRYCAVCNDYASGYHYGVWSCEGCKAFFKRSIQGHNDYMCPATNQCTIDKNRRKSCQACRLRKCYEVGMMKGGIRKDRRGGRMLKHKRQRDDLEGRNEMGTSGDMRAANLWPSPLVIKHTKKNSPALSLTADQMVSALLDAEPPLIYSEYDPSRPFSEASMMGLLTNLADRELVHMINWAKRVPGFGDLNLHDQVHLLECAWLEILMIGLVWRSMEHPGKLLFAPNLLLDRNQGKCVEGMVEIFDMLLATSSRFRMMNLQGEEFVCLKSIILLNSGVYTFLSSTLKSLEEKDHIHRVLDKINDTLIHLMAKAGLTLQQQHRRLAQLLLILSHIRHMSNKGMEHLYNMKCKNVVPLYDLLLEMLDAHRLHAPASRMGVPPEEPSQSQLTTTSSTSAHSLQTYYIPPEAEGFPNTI
Method: Uteri (6-10 per batch) were isolated from Brown Norway rats (250-350g), washed free from blood in saline and homogenised in 10 mM Tris buffer (pH 7.4, 1.5 mM EDTA, 10% w/v glycerol, 1 mM phenylmethylsulfonylfluoride) using an Ultra Turrax homogeniser for 3 by 15 s bursts with intervals of 1 min on ice.
Nuclear material and cellular debris were removed by centrifugation at 750×g at 4° C. for 10 min (Sorvall RT7); the cytosol component was prepared by centrifugation at 30000×g for 120 min at 4° C. in a Beckman JM1 centrifuge. The cytosol was diluted to approximately 1 mg/ml protein (rat uterine extract) determined using the Bradford method (Biorad).
Separation of bound from free radioligand was achieved by the addition of 500 μL of dextran-coated charcoal (400 mg dextran clinical grade C and 2g of charcoal, Norit A in 100 mL of Tris buffer) and centrifugation at 4° C. in a Sorval RT7 at 2000×g for 10 min.

Compound	pFib - bFGF [1]	HASM- Thr pIC25 [2]	HASM- Thr pIC75 [2]	HASM - GM-CSF [3]	IC50 [2] [µM]	IC50 [4] [µM]	IC50 [5] [µM]
COc1cc2c(cc1O)/C(=N/OCc1ccc(SC(F)(F)F)cc1)C[C@@H]1[C@@H]2CC[C@]2(C)/C(=N/O)CC[C@@H]12 [CP-DM-4-69, 2-methoxy-6-(4-trifluoromethylthiobenzyloxy)iminoestrone-17-oxime]	87 ± 13*	4.00	4.00	–	–	–	–
COc1cc2c(cc1O)CC[C@@H]1[C@@H]2CC[C@]2(C)/C(=N/OCc3ccc([N+](=O)[O-])cc3)CC[C@@H]12 [CP-DM-3-103, 2-methoxyestrone-17-(4-nitrobenzyl)oxime]	–	–	–	either did not inhibit or produced less inhibition	3.16	40.7	–
COc1cc2c(cc1O)/C(=N/OCc1ccc(OC(F)(F)F)cc1)C[C@@H]1[C@@H]2CC[C@]2(C)/C(=N/O)CC[C@@H]12 [CP-DM-4-68, 2-methoxy-6-(4-trifluoromethoxybenzyloxy)iminoestrone-17-oxime]	–	7.91	5.00	8 ± 13	1.82	–	–
COc1cc2c(cc1O)/C(=N/OCc1cccc([N+](=O)[O-])c1)C[C@@H]1[C@@H]2CC[C@]2(C)/C(=N/O)CC[C@@H]12 [CP-DM-3-105, 2-methoxy-6-(3-nitrobenzyloxy)iminoestrone-17-oxime]	–	8.85	5.59	–	0.1	5.13	25.1
COc1cc2c(cc1O)/C(=N/OCc1ccc(C(C)C)cc1)C[C@@H]1[C@@H]2CC[C@]2(C)/C(=N/O)CC[C@@H]12 [CP-DM-4-77, 2-methoxy-6-(4-isopropylbenzyloxy)iminoestrone-17-oxime]	–	–	–	26 ± 13	3.02	3.16	–
COc1ccc(CO/N=C2\C[C@@H]3[C@H](CC[C@]4(C)[C@@H](O)CC[C@@H]34)c3cc(OC)c(O)cc32)cc1 [CP-DM-4-5, 2-methoxy-6-(4-methoxybenzyloxy)-iminoestradiol]	–	10.46	5.27	–	0.135	5.01	0.794
COc1cc2c(cc1O)/C(=N/OCc1ccc(C#N)cc1)C[C@@H]1[C@@H]2CC[C@]2(C)/C(=N/O)CC[C@@H]12 [CP-DM-4-38, 6-(4-cyanobenzyloxy)imino-2-methoxyestrone-17-oxime]	26 ± 26	4.00	4.00	–	–	–	–
COc1cc2c(cc1O)/C(=N/OCc1cc(F)cc(F)c1)C[C@@H]1[C@@H]2CC[C@]2(C)/C(=N/O)CC[C@@H]12 [CP-DM-4-36, 6-(3,5-difluorobenzyloxy)imino-2-methoxyestrone-17-oxime]	–	7.91	5.69	–	0.129	10	20
COc1cc2c(cc1O)/C(=N/OCc1cccc([N+](=O)[O-])c1)C[C@@H]1[C@@H]2CC[C@]2(C)[C@@H](O)CC[C@@H]12 [CP-DM-3-106, 2-methoxy-6-(3-nitrobenzyloxy)iminoestradiol]	–	9.35	6.36	–	0.0251	7.59	0.178
COc1cc2c(cc1O)/C(=N/OCc1ccc(C)cc1)C[C@@H]1[C@@H]2CC[C@]2(C)[C@@H](O)CC[C@@H]12 [CP-DM-4-78, 2-methoxy-6-(4-methylbenzyloxy)iminoestradiol]	–	–	–	35 ± 9*	1	10	0.229
COc1cc2c(cc1O)/C(=N/OCc1ccc([N+](=O)[O-])cc1)C[C@@H]1[C@@H]2CC[C@]2(C)[C@@H](OC(C)=O)CC[C@@H]12 [CP-DM-4-91, 2-Methoxy-6-(4-nitrobenzyloxy)iminoestradiol-17-acetate]	–	–	–	–	6.31	10	–
